Experimental data taken from patent US20050148631A1, “Amino heterocyclyl inhibitors of 11-beta-hydroxy steroid dehydrogenase type 1” (AGOURON PHARMACEUTICALS, INC., priority 2003, published 2005).
Like-named read-outs stand apart in the source and are kept apart here.

Target: 11β-hsd-1 enzyme (Homo sapiens, UniProt P28845)
Assay: 11β-hsd-1 enzyme assay, percentage of inhibition (3H-cortisone to cortisol, radio-HPLC)
Type: biochemical
Settings: read-out: % inh @ 0.1 uM

Chain of 11β-hsd-1 enzyme (P28845 whole entry, species assumed): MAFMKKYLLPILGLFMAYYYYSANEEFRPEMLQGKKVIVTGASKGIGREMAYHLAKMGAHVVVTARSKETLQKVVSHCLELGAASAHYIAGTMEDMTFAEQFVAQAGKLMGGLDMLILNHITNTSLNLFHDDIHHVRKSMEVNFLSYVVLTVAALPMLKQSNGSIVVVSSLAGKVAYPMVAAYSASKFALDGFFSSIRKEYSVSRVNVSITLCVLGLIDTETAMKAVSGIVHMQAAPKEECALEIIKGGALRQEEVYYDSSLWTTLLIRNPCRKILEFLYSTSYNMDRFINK

Compound	inhibition at 0.1 µM (0.1 uM) [%]	also measured
Cc1cccc(NS(=O)(=O)N2CCC(C#N)(c3ccccc3)CC2)n1 [Example 305]	–	inhibition at 0.1 µM (compound at 0.1 uM): 1.1%
Cc1c(Cl)cccc1S(=O)(=O)Nc1cccc(CC(=O)N2CCC(F)(F)CC2)n1 [Example 32]	20.4	–
Cc1c(Cl)cccc1S(=O)(=O)Nc1cccc(CC(=O)N2CCCC2)n1 [Example 17]	11.4	–
Cc1nc(NS(=O)(=O)c2ccc(-c3ccc(C#N)cc3)cc2)ccc1C#N [Example 101]	32	–
Cc1ccc(C)c(-c2ccc(S(=O)(=O)Nc3cccc(C)n3)cc2C)c1 [Example 240]	–	inhibition at 0.1 µM (compound at 0.1 uM): 89%
Cc1nnc2n1CCN(S(=O)(=O)Nc1ccc3ccccc3n1)CC2 [Example 312]	–	inhibition at 0.1 µM (compound at 0.1 uM): 6.9%
Cc1cccc(NS(=O)(=O)c2ccc(-c3cn(C)cn3)cc2)n1 [Example 260]	–	inhibition at 0.1 µM (compound at 0.1 uM): 14.8%
Cc1cc(C)nc(NS(=O)(=O)c2sc(-c3ccccc3)nc2C)c1 [Example 97]	31.7	–
Cc1c(Cl)cccc1S(=O)(=O)Nc1cccc(CCO)n1 [Example 114, 3-Chloro-N-[6-(2-hydroxy-ethyl)-pyridin-2-yl]-2-methyl-benzenesulfonamide]	11.3	–
COc1ccc(-c2ccc(S(=O)(=O)Nc3cccc(C)n3)cc2C)cc1C [Example 243]	–	inhibition at 0.1 µM (compound at 0.1 uM): 70%
Cc1c(Cl)cccc1S(=O)(=O)Nc1cccc(CO)n1 [Example 116]	37.2	–
CCN(CC)C(=O)CCc1ccc(NS(=O)(=O)c2cccc(Cl)c2C)nc1 [Example 18]	34.6	–
CCN(CC)C(=O)Cc1cccc(NS(=O)(=O)c2ccc(F)cc2)n1 [Example 24]	3.7	–
COC(=O)CCc1ccc(NS(=O)(=O)c2cccc(Cl)c2C)nc1 [Example 3]	19.6	–
Cc1cccc(NS(=O)(=O)c2cnn(-c3ccccc3)c2C)n1 [Example 99]	15	–
Cc1c(Cl)cccc1S(=O)(=O)Nc1cccc(CC(=O)N2CCN(C)CC2)n1 [Example 11]	–	inhibition at 0.1 µM: 8.05%
O=S(=O)(Nc1ccc2ccccc2n1)c1ccc(-c2ccccn2)cc1 [Example 287, 4-Pyridin-2-yl-N-quinolin-2-yl-benzenesulfonamide]	–	inhibition at 0.1 µM (compound at 0.1 uM): 67.1%
Cc1c(Cl)cccc1S(=O)(=O)Nc1cccc(CC(=O)N2CCN(Cc3ccccc3)CC2)n1 [Example 12]	–	inhibition at 0.1 µM: 21.5%
Cc1cccc(-c2ccc(S(=O)(=O)Nc3cccc(C)n3)cc2C)c1 [Example 227]	–	inhibition at 0.1 µM (compound at 0.1 uM): 40%
Cc1c(Cl)cccc1S(=O)(=O)Nc1cccc(CC(=O)N2CCCC(C)(C)C2)n1 [Example 28]	45.6	–

Compound	inhibition at 0.1 µM (0.1 uM) [%]	also measured
Cc1cccc(NS(=O)(=O)c2ccc(-c3ccccn3)cc2)n1 [Example 259, N-(6-Methyl-pyridin-2-yl)-4-pyridin-2-yl-benzenesulfonamide trifuoroacetate]	–	inhibition at 0.1 µM (compound at 0.1 uM): 30%
Cc1cccc(NS(=O)(=O)c2ccc(-c3ccc(OCc4ccccc4)cc3)cc2)n1 [Example 159]	90.4	–
Cc1cccc(N(CCN(C)C)S(=O)(=O)c2ccc(-c3ccc(C#N)cc3)cc2)n1 [Example 265, 4′-Cyano-biphenyl-4-sulfonic acid (2-dimethylamino-ethyl)-(6-methyl-pyridin-2-yl)-amide]	–	inhibition at 0.1 µM (compound at 0.1 uM): 11.4%
Cc1cccc(NS(=O)(=O)c2ccc(-c3c(C)cccc3C)c(C)c2)n1 [Example 241]	–	inhibition at 0.1 µM (compound at 0.1 uM): 64%
Cc1cccc(NS(=O)(=O)c2c(Cl)nc3sccn23)n1 [Example 80]	8	–
O=S(=O)(Nc1cccc(CN2CCOCC2)n1)c1ccc(-c2ccccc2)cc1 [Example 64]	8.9	–
COc1ccc(C(C)C)cc1-c1ccc(S(=O)(=O)Nc2cccc(C)n2)cc1C [Example 239]	–	inhibition at 0.1 µM (compound at 0.1 uM): 65%
CCOc1ccccc1-c1ccc(S(=O)(=O)Nc2cccc(C)n2)c(C)c1 [Example 188]	53	–
Cc1cc(C)nc(NS(=O)(=O)c2cccc(Cl)c2C)n1 [Example 58]	4	–
Cc1cccc(NS(=O)(=O)c2ccc(-c3ccccc3F)c(C)c2)n1 [Example 230]	–	inhibition at 0.1 µM (compound at 0.1 uM): 23%
Cc1cccc(-c2ccc(S(=O)(=O)Nc3cccc(C)n3)c(C)c2)c1 [Example 189]	88	–
Cc1cccc(NS(=O)(=O)c2ccc(-c3ccc4ccccc4c3)cc2)n1 [Example 137]	79	–
Cc1cccc(NS(=O)(=O)N2CC(Oc3ccc(F)cc3)C2)n1 [Example 313]	–	inhibition at 0.1 µM (compound at 0.1 uM): 27.2%
Cc1cc(C)nc(NS(=O)(=O)c2cccc(Cl)c2C)c1 [Example 44]	16	–
COc1ccc(C)nc1NS(=O)(=O)c1ccc(-c2ccc(C)cc2)cc1 [Example 278]	–	inhibition at 0.1 µM (compound at 0.1 uM): 42.8%
Cc1cccc(NS(=O)(=O)c2sc(C)nc2C)n1 [Example 98]	8.9	–
Cc1cccc(NS(=O)(=O)c2ccc(-c3ccc(CC(C)C)cc3)c(C)c2)n1 [Example 248]	–	inhibition at 0.1 µM (compound at 0.1 uM): 57%
N#Cc1ccc(-c2ccc(S(=O)(=O)Nc3ccccn3)cc2)cc1 [Example 82]	53.4	–
Cc1cccc(N(CCO)S(=O)(=O)c2ccc(-c3ccc(C#N)cc3)cc2)n1 [Example 266, 4′-Cyano-biphenyl-4-sulfonic acid (2-hydroxy-ethyl)-(6-methyl-pyridin-2-yl)-amide]	–	inhibition at 0.1 µM (compound at 0.1 uM): 9.6%
COc1cc(-c2ccc(C#N)cc2)ccc1S(=O)(=O)Nc1cccc(C)n1 [Example 276, 4′-Cyano-3-methoxy-biphenyl-4-sulfonic acid (6-methyl-pyridin-2-yl)-amide]	–	inhibition at 0.1 µM (compound at 0.1 uM): 60.1%

Now from value to molecule, other results behind:

inhibition at 0.1 µM (0.1 uM) [%]	Compound	also measured
100	Cc1cccc(NS(=O)(=O)c2ccc(-c3ccc(C(F)(F)F)cc3)cc2)n1 [Example 157]	–
9.1	Cc1c(Cl)cccc1S(=O)(=O)Nc1cccc(CC(=O)NCc2ccc(C(F)(F)F)cc2)n1 [Example 13]	–
80.6	Cc1cccc(NS(=O)(=O)c2ccc(-c3cc(F)cc(F)c3)cc2)n1 [Example 145]	–
89.9	Cc1cccc(NS(=O)(=O)c2ccc(-c3ccc(F)c(Cl)c3)cc2)n1 [Example 123]	–
91.2	Cc1cccc(NS(=O)(=O)c2ccc(-c3ccc4c(c3)OCO4)cc2)n1 [Example 138]	–
3.7	COc1ccc(C)nc1NS(=O)(=O)c1ccc(C(F)(F)F)cc1 [Example 89]	–
33.8	Cc1ccc(NS(=O)(=O)c2ccc(-c3ccccc3)cc2)nc1 [Example 66]	–
1	Cc1cccc(NS(=O)(=O)c2ccccc2C(F)(F)F)n1 [Example 54]	–
24.8	Cc1cccc(NS(=O)(=O)c2ccc(C#N)cc2)n1 [Example 90]	–
0.3	CCOC(=O)Cc1cccc(NS(=O)(=O)c2ccc(C(F)(F)F)cc2)n1 [Example 5]	–
37.9	CSc1ccccc1-c1ccc(S(=O)(=O)Nc2cccc(C)n2)cc1 [Example 139]	–
86.8	Cc1cccc(NS(=O)(=O)c2ccc(-c3ccc(OC(F)(F)F)cc3)cc2)n1 [Example 144]	–
82.6	Cc1ccc(S(=O)(=O)Nc2cccc(C)n2)cc1 [Example 49]	–
10.1	Cc1cccc(NS(=O)(=O)c2cccc(C(F)(F)F)c2)n1 [Example 50]	–
32	Cc1cccc(NS(=O)(=O)c2ccc(C(C)(C)C)cc2)n1 [Example 52]	–
91	Cc1cccc(NS(=O)(=O)c2ccc(-c3ccc(Cl)c(Cl)c3)cc2)n1 [Example 140]	–
29.8	Cc1cccc(NS(=O)(=O)c2ccc(-n3cccn3)cc2)n1 [Example 92]	–
